Assay results reported in patent publication US9321750B2, “ROR modulators and their uses” (INNOV17 LLC, priority 2012, dated 2016).

Columns and labels:
IL-17F = assay: TH17 cytokine inhibition as measured by ELISA: IL-17F; assay type: cell-based; conditions: 120 h; human TH17 cells, 5 days differentiation, ELISA of supernatant
Procedure: (§1) Peripheral blood mononuclear cells (PBMCs) were sourced from freshly prepared leukocyte enriched plasma (buffy coat) from healthy volunteers from which PBMCs were isolated by density gradient centrifugation using Ficoll-Paque™ PLUS (GE Healthcare). Naïve CD4+ T cells were isolated using the Naïve CD4+ T cell Isolation Kit II (Miltenyi Biotec) as per manufacturer's instructions. CD4+ T cells were plated at 5×10^4 cells/well in 96 well plates pre-coated with immobilized human (h)-αCD3 antibody (eBioscience) then differentiated to TH17 cells using h-αCD28, h-αIFNγ, h-αIL4, h-IL6, h-IL23, h-IL1β, h-TGFβ1 (eBioscience) and maintained in a cell culture incubator at 37° C. with 5% CO2 in TexMACS Medium (Miltenyi Biotec) supplemented with 1% Penicillin/Streptomycin (Lonza) over 5 days.
(§2) Human CD4+ T cells were differentiated to TH17 cells as described in the presence or absence of various concentrations of compounds in a final concentration of 0.1% DMSO in TexMACS medium. Supernatants were collected and stored at −20° C. until they were to be assayed for IL-17A, IL-17F, IL-17AF, IL-21 and/or IL-22 levels as determined by Ready-Set-Go ELISA kits (eBioscience) as per manufacturer's instructions. Endpoint absorbance was read at 450 nm and 570 nm according to manufacturer's instructions (eBioscience) using a microplate reader (Perkin Elmer). The percentage of cytokine inhibition was calculated with reference to DMSO treated cells and the IC50s were determined by GraphPad Prism software and presented in the table below.

IL-22 = assay: TH17 cytokine inhibition as measured by ELISA: IL-22; assay type: cell-based; conditions: 120 h; human TH17 cells, 5 days differentiation, ELISA of supernatant
Procedure: as §1, §2

IL-17A = assay: TH17 cytokine inhibition as measured by ELISA: IL-17A; assay type: cell-based; conditions: 120 h; human TH17 cells, 5 days differentiation, ELISA of supernatant
Procedure: as §1, §2

[1] = TH17 cell viability (Prestoblue); assay type: cell-based; parameters: concentration or dose not given beside the values; conditions: human; percentage of DMSO treated cells; read-out: % viability of compound treated TH17 cells
Procedure: as §1
Cells were assayed for viability in the presence or absence of compound using Prestoblue® Cell Viability Reagent (Life Technologies) as per manufacturer's instructions after 30 minutes incubation of TH17 cells with reagent. Absorbance was measured at 570 nm and 600 nm using a microplate reader (Perkin Elmer) and data were analyzed as per manufacturer's instructions. Cell viability was expressed as a percentage of DMSO treated cells.

TH17 cells = assay: TH17 cellular proliferation (Prestoblue); assay type: cell-based; conditions: Homo sapiens, 120 h; 3 μM compound, after 5 day TH17 differentiation, relative to DMSO treated TH17 cells; read-out: % change in TH17 cell number
Procedure: as §1
Cellular proliferation was assessed in the presence or absence of 3 μM compound using Prestoblue® Cell Viability Reagent (Life Technologies) as per manufacturer's instructions using absorbance as the output measured by a microplate reader (Perkin Elmer) after 30 minutes of incubation of cells and reagent. A standard curve developed by plotting varying cell numbers versus absorbance was used to assess differences in cellular proliferation between compound treated or untreated cells after the 5 day TH17 differentiation period.

RORα LBD [2] = biological target: T1, RORα LBD (Homo sapiens (Human), UniProt P35398); assay: TR-FRET co-repressor NCoR1-D2 interaction with RORα LBD; assay type: biochemical
Description: (§3) The Time-Resolved Fluorescence Resonance Energy Transfer (TR-FRET) assay kit (Life Technologies) was used to measure compound efficacy to disrupt or enhance ligand-mediated interaction of the co-activator and co-repressor peptides with the purified GST-tagged (i) RORγ LBD or (ii) […]. The RORγ LBD and RORα LBD each have a basal level of interaction with the co-activator D22 or co-repressor NCoR1-D2 in the absence of ligand, thus it is possible to identify compounds that inhibit or induce RORγ and/or RORα co-activator/co-repressor interactions, thus determining RORα, RORγ, or RORα/RORγ compound selectivity. The assay was performed as per manufacturer's instructions and TR-FRET was assessed 2 and 20 hours post-assay initiation. Compounds were identified to (i) have no impact on either co-activator displacement or […] from the assessed LBD (ii) promote co-activator displacement from the assessed LBD (iii) promote co-repressor recruitment to the assessed LBD or (iv) concurrently promote co-activator displacement from the assessed LBD and co-repressor recruitment to the assessed LBD.

RORα LBD [3] = biological target: T1, RORα LBD; assay: TR-FRET co-activator D22 interaction with RORα LBD; assay type: biochemical
Description: as §3

RORγ LBD [4] = biological target: T2, RORγ LBD (Homo sapiens (Human), UniProt P51449); assay: TR-FRET co-activator D22 interaction with RORγ LBD; assay type: biochemical
Description: as §3

RORγ LBD [5] = biological target: T2, RORγ LBD; assay: TR-FRET co-repressor NCoR1-D2 interaction with RORγ LBD; assay type: biochemical
Description: as §3

[6] = 2 hr, read-out: RORα EC50 NCoR1-D2 co-repressor recruitment 2 hr
[7] = 20 hr, read-out: RORα EC50 NCoR1-D2 co-repressor recruitment 20 hr
[8] = 2 hr, read-out: RORα EC50 D22 co-activator displacement 2 hr
[9] = 20 hr, read-out: RORα EC50 D22 co-activator displacement 20 hr
[10] = 2 hr, read-out: RORγ EC50 D22 co-activator displacement 2 hr
[11] = 20 hr, read-out: RORγ EC50 D22 co-activator displacement 20 hr
[12] = 2 hr, read-out: RORγ EC50 NCoR1-D2 co-repressor recruitment 2 hr
[13] = 20 hr, read-out: RORγ EC50 NCoR1-D2 co-repressor recruitment 20 hr
[14] = 2 hr, co-activator recruitment (π), read-out: RORα EC50 D22 2 hr (demonstrates co-activator recruitment)
[15] = 20 hr, co-activator recruitment (π), read-out: RORα EC50 D22 20 hr (demonstrates co-activator recruitment)
[16] = 2 hr, co-activator recruitment (π), read-out: RORγ EC50 D22 2 hr (demonstrates co-activator recruitment)

T2 sequence (P51449 269-508): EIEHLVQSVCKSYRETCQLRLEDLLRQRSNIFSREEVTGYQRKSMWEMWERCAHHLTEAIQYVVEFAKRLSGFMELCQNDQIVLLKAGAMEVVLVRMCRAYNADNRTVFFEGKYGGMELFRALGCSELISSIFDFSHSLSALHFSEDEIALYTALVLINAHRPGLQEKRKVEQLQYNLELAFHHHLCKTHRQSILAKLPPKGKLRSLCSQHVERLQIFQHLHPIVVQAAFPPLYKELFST
T1 sequence (P35398 272-510): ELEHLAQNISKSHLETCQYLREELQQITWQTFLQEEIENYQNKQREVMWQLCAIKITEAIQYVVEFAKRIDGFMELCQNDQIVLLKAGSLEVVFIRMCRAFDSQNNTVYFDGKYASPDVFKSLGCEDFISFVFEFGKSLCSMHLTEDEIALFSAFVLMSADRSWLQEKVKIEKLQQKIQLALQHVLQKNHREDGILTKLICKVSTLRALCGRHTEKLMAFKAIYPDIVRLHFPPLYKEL

Row | Compound | IC50 (IL-17F) [µM] | IC50 (IL-22) [µM] | IC50 (IL-17A) [µM] | viability [1] [%] | inhibition at 3 µM (TH17 cells) [%] | EC50 (RORα LBD [2]; [6]) [µM] | EC50 (RORα LBD [2]; [7]) [µM] | EC50 (RORα LBD [3]; [8]) [µM] | EC50 (RORα LBD [3]; [9]) [µM] | EC50 (RORγ LBD [4]; [10]) [µM] | EC50 (RORγ LBD [4]; [11]) [µM] | EC50 (RORγ LBD [5]; [12]) [µM] | EC50 (RORγ LBD [5]; [13]) [µM] | EC50 (RORα LBD [3]; [14]) [µM] | EC50 (RORα LBD [3]; [15]) [µM] | EC50 (RORγ LBD [4]; [16]) [µM] | EC50 (RORα LBD [2]; 20 hr, co-repressor displacement (Ω), read-out: RORα EC50 NCoR1-D2 20 hr (demonstrates co-repressor displacement)) [µM] | EC50 (RORγ LBD [4]; 20 hr, co-activator recruitment (π), read-out: RORγ EC50 D22 20 hr (demonstrates co-activator recruitment)) [µM]
1 | CC(=O)Nc1ccc2c(c1)CCN2Cc1ccc(C(=O)N(C)C)cc1 [Example 13, 4-((5-acetamidoindolin-1-yl)methyl)-N,N-dimethylbenzamide] | > 10 | > 10 | > 10 | > 80 | ≤ 50 | > 30 | > 30 | > 30 | > 30 | > 30 | > 30 | > 30 | > 30 |  |  |  |  | 
2 | CC(=O)Nc1ccc2c(ccn2Cc2ccc(C(O)(C(F)(F)F)C(F)(F)F)cc2)c1 [Example 16, N-(1-(4-(1,1,1,3,3,3-hexafluoro-2-hydroxypropan-2-yl)benzyl)-1H-indol-5-yl)acetamide] | < 10 | < 10 | < 10 | > 80 | ≤ 50 | > 30 | < 30 | < 30 | > 30 | < 30 | < 30 | > 30 | > 30 |  |  |  |  | 
3 | CC(=O)Nc1ccc2c(c1)CCN2Cc1ccc(C(N)=O)cc1 [Example 11, 4-((5-acetamidoindolin-1-yl)methyl)benzamide] | > 10 | > 10 | > 10 | > 80 | ≤ 50 | > 30 | > 30 |  |  |  | > 30 | > 30 | > 30 | < 30 | < 30 | < 30 |  | 
4 | CC(=O)Nc1ccc2c(c1)CCN2Cc1ccc(C(=O)Nc2ccccc2)cc1 [Example 15, 4-((5-acetamidoindolin-1-yl)methyl)-N-phenylbenzamide] | < 10 | < 10 | < 10 | > 80 | ≤ 50 | > 30 | > 30 | > 30 | > 30 | < 30 | < 30 | > 30 | > 30 |  |  |  |  | 
5 | CC(=O)Nc1ccc2c(c1)CCN2Cc1ccc(C(F)(F)F)cc1 [Example 7, N-(1-(4-(trifluoromethyl)benzyl)indolin-5-yl)acetamide] | < 10 | < 10 | < 10 | > 80 | ≤ 50 | > 30 | > 30 | > 30 | > 30 | > 30 | < 30 | > 30 | > 30 |  |  |  |  | 
6 | CC(=O)Nc1ccc2c(c1)CCN2Cc1ccc(C(=O)N(C)c2ccccc2)cc1 [Example 14, 4-((5-acetamidoindolin-1-yl)methyl)-N-methyl-N-phenylbenzamide] | < 10 | < 10 | < 10 | > 80 |  | > 30 | > 30 | > 30 | > 30 |  | > 30 | > 30 | > 30 |  |  | < 30 |  | 
7 | CC(=O)Nc1ccc2c(c1)CCN2Cc1ccc(C2(O)CCC2)cc1 [Example 10, N-(1-(4-(1-hydroxycyclobutyl)benzyl)indolin-5-yl)acetamide] | > 10 | < 10 | > 10 | > 80 |  | > 30 | > 30 | < 30 | < 30 | > 30 | > 30 | > 30 | > 30 |  |  |  |  | 
8 | CC(=O)Nc1ccc2c(c1)CCN2Cc1ccc(C(C)C)cc1 [Example 8, N-(1-(4-isopropylbenzyl)indolin-5-yl)acetamide] | < 10 | < 10 | < 10 | > 80 | ≤ 50 | > 30 | > 30 | > 30 | > 30 | < 30 | < 30 | > 30 | > 30 |  |  |  |  | 
9 | CC(=O)Nc1ccc2c(c1)CCN2Cc1ccc(-c2cc(C)n[nH]2)cc1 [Example 9, N-(1-(4-(3-methyl-1H-pyrazol-5-yl)benzyl)indolin-5-yl)acetamide] | < 10 | < 10 | < 10 | > 80 |  | > 30 | > 30 | > 30 | > 30 | > 30 | > 30 | > 30 | > 30 |  |  |  |  | 
10 | CNC(=O)c1ccc(CN2CCc3cc(NC(C)=O)ccc32)cc1 [Example 12, 4-((5-acetamidoindolin-1-yl)methyl)-N-methylbenzamide] | > 10 | > 10 | > 10 | > 80 | ≤ 50 | > 30 |  |  |  |  |  | > 30 | > 30 | < 30 | < 30 | < 30 | < 30 | < 30
